Results published in patent US20250144067A1, “PERSONALIZED STARVATION THERAPY FOR CANCER” (Faeth Therapeutics, Inc., priority 2021, published 2025).
Where a name gives a salt, the structure may show the parent alone. Read-outs that look alike come from different tables or passages of the source.

Assays:
[1] = system: NCI-H292 lung cancer cells; assay: FDA drug screening, complete media vs cholesterol-free media with simvastatin (TABLE 2); format: cell-based, human
[2] = system: NCI-H292 lung cancer cells; assay: FDA drug screening, complete media vs cholesterol-free media without statin (TABLE 1); format: cell-based, human
[3] = NCI-H292 cells, drug in cholesterol-free media with simvastatin 0.04 μM
[4] = NCI-H292 cells, drug in complete media
[5] = complete media vs cholesterol-free media + simvastatin (0.04 μM), >0 enhanced anti-cancer activity, about 0 neutral, <0 antagonist
[6] = NCI-H292 cells, cholesterol-free media without statin
[7] = complete vs cholesterol-free media, greater than 0 enhanced anti-cancer activity, about 0 neutral, below 0 antagonists
[8] = NCI-H292 cells, FDA library drug in cholesterol-free media with simvastatin 0.04 μM
[9] = NCI-H292 cells, FDA library drug in complete media
[10] = complete media vs cholesterol-free media + simvastatin (0.04 μM), […]
[11] = Complete minus Cholesterol-free, […]
[12] = Complete minus Cholesterol-free, greater than 0 enhanced anti-cancer activity, about 0 neutral, below 0 antagonists
[13] = NCI-H292 cells in cholesterol-free media without statin
[14] = NCI-H292 cells in complete media
[15] = NCI-H292 cells, FDA drug library screen, cholesterol-free media with simvastatin 0.04 μM
[16] = NCI-H292 cells, FDA drug library screen, complete media
[17] = complete media minus cholesterol-free media + simvastatin, >0 enhanced anti-cancer activity, about 0 neutral, <0 antagonist
[18] = Complete minus Cholesterol-free, >0 enhanced anti-cancer activity, about 0 neutral, <0 antagonist
[19] = NCI-H292 cells, FDA drug library screen, cholesterol-free media without statin
[20] = NCI-H292 cells, cholesterol-free media without statin, FDA drug library screen
[21] = NCI-H292 cells, complete media, FDA drug library screen
[22] = NCI-H292 cells, cholesterol-free media with simvastatin 0.04 μM, FDA drug library screen (TABLE 2)
[23] = NCI-H292 cells, complete media, FDA drug library screen (TABLE 2)
[24] = complete media minus cholesterol-free media + simvastatin (0.04 μM), >0 enhanced anti-cancer activity, about 0 neutral, <0 antagonist
[25] = complete vs cholesterol-free media, >0 enhanced anti-cancer activity, about 0 neutral, <0 antagonist
[26] = NCI-H292 cells, cholesterol-free media with simvastatin 0.04 μM, cell growth value in FDA drug screen
[27] = NCI-H292 cells, complete media, cell growth value in FDA drug screen

## CC(C)(C)NCC(O)COc1ccccc1C1CCCC1 (single isomer, unassigned; (+)) [(+)-Penbutolol]
[1]; [3]
  Cholesterol-free media + simvastatin (0.04 μM): 1.153
[1]; [4]
  Complete Media: 0.9518
[1]; [5]
  Difference: −0.20
[2]; [6]
  Cholesterol-free: 1.349
[2]; NCI-H292 cells, complete media
  Complete: 1.014
[2]; [7]
  Difference: −0.33

## CC(C)=CCC[C@](C)(O)[C@H]1CC[C@]2(C)[C@@H]1[C@H](O)C[C@@H]1[C@@]3(C)CC[C@H](O[C@@H]4O[C@H](CO)[C@@H](O)[C@H](O)[C@H]4O[C@@H]4O[C@H](CO)[C@@H](O)[C@H](O)[C@H]4O)C(C)(C)[C@@H]3CC[C@]12C [20(S)-Ginsenoside Rg3]
[1]; [8]
  Cholesterol-free media + simvastatin (0.04 μM): 1.721
[1]; [9]
  Complete Media: 1.403
[1]; [10]
  Difference: −0.32
[2]; [11]
  Difference: −0.21
[2]; [6]
  Cholesterol-free: 1.062
[2]; NCI-H292 cells, complete media
  Complete: 0.8564

## CC1(C)S[C@@H]2[C@H](NC(=O)Cc3ccccc3)C(=O)N2[C@H]1C(=O)O.CC1(C)S[C@@H]2[C@H](NC(=O)Cc3ccccc3)C(=O)N2[C@H]1C(=O)O.O.O.O.O.c1ccc(CNCCNCc2ccccc2)cc1 [Penicillin G benzathine (tetrahydrate)]
[1]; [3]
  Cholesterol-free media + simvastatin (0.04 μM): 1.321
[1]; [4]
  Complete Media: 1.126
[1]; [5]
  Difference: −0.20
[2]; [12]
  Difference: −0.54
[2]; [13]
  Cholesterol-free: 1.6
[2]; [14]
  Complete: 1.064

## Cn1c([N+](=O)[O-])cnc1COC(N)=O [Ronidazole]
[1]; [15]
  Cholesterol-free media + simvastatin (0.04 μM): 0.9748
[1]; [16]
  Complete Media: 1.335
[1]; [17]
  Difference: 0.36
[2]; [6]
  Cholesterol-free: 1.54
[2]; NCI-H292 cells, complete media
  Complete: 1.069
[2]; [7]
  Difference: −0.47

## c1cnc2cc3c(cc2n1)[C@@H]1CNC[C@H]3C1 [Varenicline (Hydrochloride)]
[1]; [3]
  Cholesterol-free media + simvastatin (0.04 μM): 1.193
[1]; [4]
  Complete Media: 0.9876
[1]; [5]
  Difference: −0.21
[2]; [18]
  Difference: −0.20
[2]; [6]
  Cholesterol-free: 1.095
[2]; NCI-H292 cells, complete media
  Complete: 0.8911

## COc1ccccc1OCC(O)COC(N)=O (stereo not shown) [Methocarbamol]
[1]; [8]
  Cholesterol-free media + simvastatin (0.04 μM): 1.33
[1]; [9]
  Complete Media: 0.8727
[1]; [5]
  Difference: −0.46
[2]; [18]
  Difference: −0.29
[2]; [6]
  Cholesterol-free: 1.357
[2]; NCI-H292 cells, complete media
  Complete: 1.063

## Cc1ccc(C(=O)c2cc(O)c(O)c([N+](=O)[O-])c2)cc1 [Tolcapone]
[1]; [3]
  Cholesterol-free media + simvastatin (0.04 μM): 1.114
[1]; [4]
  Complete Media: 0.8994
[1]; [5]
  Difference: −0.21
[2]; Complete minus Cholesterol-free, greater than 0 enhanced anti-cancer activity, about 0 neutral, below 0 antagonist
  Difference: −0.19
[2]; [19]
  Cholesterol-free: 1.149
[2]; [16]
  Complete: 0.9627

## Selumetinib (sulfate)
[1]; [15]
  Cholesterol-free media + simvastatin (0.04 μM): 0.2941
[1]; [10]
  Difference: −0.10
[2]; [11]
  Difference: −0.06
[2]; [20]
  Cholesterol-free: 0.3932
[2]; [21]
  Complete: 0.3287

## CC(C)(C(=O)O)c1ccc(C(O)CCCN2CCC(C(O)(c3ccccc3)c3ccccc3)CC2)cc1 (stereo not shown) [Fexofenadine (hydrochloride)]
[1]; [8]
  Cholesterol-free media + simvastatin (0.04 μM): 1.402
[1]; [9]
  Complete Media: 1.104
[1]; [5]
  Difference: −0.30
[2]; [18]
  Difference: −0.02
[2]; [20]
  Cholesterol-free: 1.052
[2]; [21]
  Complete: 1.034

## COc1cc(/C=C/C(=O)O)ccc1O.[Na] [Ferulic acid (sodium)]
[1]; [22]
  Cholesterol-free media + simvastatin (0.04 μM): 0.806
[1]; [23]
  Complete Media: 0.766
[1]; [24]
  Difference: −0.04
[2]; [20]
  Cholesterol-free: 1.137
[2]; [21]
  Complete: 1.309
[2]; [25]
  Difference: 0.17

## C[n+]1ccccc1C=NO.[I-] [Pralidoxime (iodide)]
[1]; [15]
  Cholesterol-free media + simvastatin (0.04 μM): 0.9948
[1]; [16]
  Complete Media: 0.8823
[1]; [10]
  Difference: −0.11
[2]; [11]
  Difference: −0.07
[2]; [19]
  Cholesterol-free: 1.049
[2]; [16]
  Complete: 0.9757

## CCc1c2c(nc3ccc(OC(=O)N4CCC(N5CCCCC5)CC4)cc13)-c1cc3c(c(=O)n1C2)COC(=O)[C@]3(O)CC [Irinotecan (hydrochloride)]
[1]; [26]
  Cholesterol-free media + simvastatin (0.04 μM): 0.928
[1]; [27]
  Complete Media: 1.063
[1]; [17]
  Difference: 0.13
[2]; [18]
  Difference: 0.02
[2]; [20]
  Cholesterol-free: 1.352
[2]; [21]
  Complete: 1.37

## COc1cc(C=O)ccc1O [Vanillin]
[1]; [22]
  Cholesterol-free media + simvastatin (0.04 μM): 1.042
[1]; [23]
  Complete Media: 1.057
[1]; [24]
  Difference: 0.02
[2]; [20]
  Cholesterol-free: 0.7241
[2]; [21]
  Complete: 0.863
[2]; [25]
  Difference: 0.14

## CN1CCC(=C2c3ccccc3C=Cc3ccccc32)CC1 [Cyproheptadine (hydrochloride sesquihydrate)]
[1]; [26]
  Cholesterol-free media + simvastatin (0.04 μM): 1.087
[1]; [27]
  Complete Media: 1.192
[1]; [17]
  Difference: 0.11
[2]; [20]
  Cholesterol-free: 0.8413
[2]; [21]
  Complete: 1.399
[2]; [25]
  Difference: 0.56

## CCCCc1oc2ccccc2c1C(=O)c1cc(I)c(OCCN(CC)CC)c(I)c1 [Amiodarone (hydrochloride)]
[1]; [26]
  Cholesterol-free media + simvastatin (0.04 μM): 1.081
[1]; [27]
  Complete Media: 1.107
[1]; [17]
  Difference: 0.03
[2]; [12]
  Difference: −0.67
[2]; [13]
  Cholesterol-free: 1.555
[2]; [14]
  Complete: 0.8858

## COc1ccc(C(C)=O)c(O)c1 [Paeonol]
[1]; [26]
  Cholesterol-free media + simvastatin (0.04 μM): 1.081
[1]; [27]
  Complete Media: 1.107
[1]; [17]
  Difference: 0.03
[2]; [18]
  Difference: −0.29
[2]; [6]
  Cholesterol-free: 1.074
[2]; NCI-H292 cells, complete media
  Complete: 0.7804

## Sorafenib (Tosylate)
[1]; [15]
  Cholesterol-free media + simvastatin (0.04 μM): 1.142
[1]; [10]
  Difference: −0.09
[2]; [20]
  Cholesterol-free: 0.8797
[2]; [21]
  Complete: 0.9619
[2]; complete vs cholesterol-free media, […]
  Difference: 0.08

## CCOc1cc2ncc(C#N)c(Nc3ccc(OCc4ccccn4)c(Cl)c3)c2cc1NC(=O)/C=C/CN(C)C [Neratinib]
[1]
  Cholesterol-free media + simvastatin (0.04 μM): 0.3387
  Complete Media: 0.3007
  Difference: −0.04
[2]
  Cholesterol-free: 0.06707
  Complete: 0.1268
  Difference: 0.06

## COc1ccc(-c2ccc3cc(C(=O)O)ccc3c2)cc1C12CC3CC(CC(C3)C1)C2 [Adapalene]
[1]; [22]
  Cholesterol-free media + simvastatin (0.04 μM): 0.9237
[1]; [23]
  Complete Media: 0.9286
[1]; [24]
  Difference: 0.00
[2]; [20]
  Cholesterol-free: 0.6976
[2]; [21]
  Complete: 1.022
[2]; [25]
  Difference: 0.32

## CC(=O)O[C@H]1C[C@H](O[C@H]2[C@@H](O)C[C@H](O[C@H]3[C@@H](O)C[C@H](O[C@H]4CC[C@@]5(C)[C@H](CC[C@@H]6[C@@H]5C[C@@H](O)[C@]5(C)[C@@H](C7=CC(=O)OC7)CC[C@]65O)C4)O[C@@H]3C)O[C@@H]2C)O[C@H](C)[C@H]1O[C@@H]1O[C@H](CO)[C@@H](O)[C@H](O)[C@H]1O [Lanatoside C]
[1]; [22]
  Cholesterol-free media + simvastatin (0.04 μM): −0.002744
[1]; [23]
  Complete Media: −0.008403
[1]; complete media minus cholesterol-free media + simvastatin (0.04 μM), […]
  Difference: −0.01
[2]; [11]
  Difference: −0.02
[2]; [20]
  Cholesterol-free: 7.102E−18
[2]; [21]
  Complete: −0.02112

## Cc1cn[nH]c1 [Fomepizole]
[1]; [15]
  Cholesterol-free media + simvastatin (0.04 μM): 0.8562
[1]; [16]
  Complete Media: 1.121
[1]; [17]
  Difference: 0.26
[2]; [18]
  Difference: −0.26
[2]; [6]
  Cholesterol-free: 1.239
[2]; NCI-H292 cells, complete media
  Complete: 0.9771

## Cc1nnc(SCC2=C(C(=O)O)N3C(=O)[C@@H](NC(=O)Cn4cnnn4)[C@H]3SC2)s1 [Cefazolin]
[1]; [15]
  Cholesterol-free media + simvastatin (0.04 μM): 1.197
[1]; [16]
  Complete Media: 1.069
[1]; [5]
  Difference: −0.13
[2]; [12]
  Difference: −0.54
[2]; [13]
  Cholesterol-free: 1.603
[2]; [14]
  Complete: 1.065

## C[C@H](O)[C@H](O)[C@H]1CNc2nc(N)[nH]c(=O)c2N1 [Sapropterin (dihydrochloride)]
[1]; [3]
  Cholesterol-free media + simvastatin (0.04 μM): 1.145
[1]; [4]
  Complete Media: 0.9841
[1]; [5]
  Difference: −0.16
[2]; [18]
  Difference: −0.20
[2]; [6]
  Cholesterol-free: 1.242
[2]; NCI-H292 cells, complete media
  Complete: 1.038
